Measurements reported in PubChem BioAssay (NCI).
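Values below derive from 48-hour exposures of cells grown in 96-well plates, with endpoints linearly interpolated between the two concentrations bracketing the appropriate inhibition level. GI50 = concentration required for 50% inhibition of growth. At the TGI there is no net growth.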

Legend:
Assay in all cases: growth of human tumour cells (NCI), 48 h
[1] = system: 786-0 renal
[2] = system: A498 renal
[3] = system: A549 NSCLC
[4] = system: ACHN renal
[5] = system: BT-549 breast
[6] = system: CAKI-1 renal
[7] = system: CCRF-CEM leukemia
[8] = system: COLO 205 colon
[9] = system: DU-145 prostate
[10] = system: EKVX NSCLC
[11] = system: HCC-2998 colon
[12] = system: HCT-116 colon
[13] = system: HCT-15 colon
[14] = system: HL-60(TB) leukemia
[15] = system: HOP-62 NSCLC
[16] = system: HOP-92 NSCLC
[17] = system: HS 578T breast
[18] = system: HT29 colon
[19] = system: IGROV1 ovarian
[20] = system: K-562 leukemia
[21] = system: KM12 colon
[22] = system: LOX IMVI melanoma
[23] = system: M14 melanoma
[24] = system: MALME-3M melanoma
[25] = system: MCF7 breast
[26] = system: MDA-MB-231 breast
[27] = system: MDA-MB-435
[28] = system: MOLT-4 leukemia
[29] = system: NCI-H226 lung
[30] = system: NCI-H23 lung
[31] = system: NCI-H460 lung
[32] = system: NCI-H522 lung
[33] = system: NCI/ADR-RES ovarian
[34] = system: OVCAR-3 ovarian
[35] = system: OVCAR-4 ovarian
[36] = system: OVCAR-5 ovarian
[37] = system: OVCAR-8 ovarian
[38] = system: PC-3 prostate
[39] = system: RPMI-8226 leukemia
[40] = system: RXF 393 renal
[41] = system: SF-268 CNS
[42] = system: SF-295 CNS
[43] = system: SF-539 CNS
[44] = system: SK-MEL-2 melanoma
[45] = system: SK-MEL-28 melanoma
[46] = system: SK-MEL-5 melanoma
[47] = system: SK-OV-3 ovarian
[48] = system: SN12C renal
[49] = system: SNB-19 CNS
[50] = system: SNB-75 CNS
[51] = system: SR leukemia
[52] = system: SW-620 colon
[53] = system: T-47D breast
[54] = system: TK-10 renal
[55] = system: U251 CNS
[56] = system: UACC-257 melanoma
[57] = system: UACC-62 melanoma
[58] = system: UO-31 renal

Q: For `Oc1ccccc1-n1c(-c2ccccc2)ccc1-c1ccccc1`, which GI50 [1] is on record?
A: The GI50 was 13.2 µM.

Q: And the TGI [1]?
A: Its TGI is 26.5 µM.

Q: What about the GI50 [2] of the same compound?
A: The GI50 was 7.49 µM.

Q: And the TGI [2]?
A: Its TGI is 35.8 µM.

Q: What about the GI50 [3] of the same compound?
A: Its GI50 is 4.62 µM.

Q: What about the TGI [3] of the same compound?
A: Its TGI is 19.6 µM.

Q: What about the GI50 [4] of the same compound?
A: Its GI50 is 9.13 µM.

Q: And the TGI [4]?
A: Its TGI is 21.2 µM.

Q: What about the GI50 [5] of the same compound?
A: Its GI50 is 13.4 µM.

Q: What about the TGI [5] of the same compound?
A: Its TGI is 89.5 µM.

Q: And the GI50 [6]?
A: Its GI50 is 3.85 µM.

Q: And the TGI [6]?
A: Its TGI is 18.1 µM.

Q: And the GI50 [7]?
A: The GI50 was 4.77 µM.

Q: And the TGI [7]?
A: Its TGI is 71.1 µM.

Q: And the GI50 [8]?
A: Its GI50 is 15.3 µM.

Q: And the TGI [8]?
A: The TGI was 56.6 µM.

Q: And the GI50 [9]?
A: The GI50 was 7 µM.

Q: And the TGI [9]?
A: Its TGI is 19.7 µM.

Q: What about the GI50 [10] of the same compound?
A: The GI50 was 2.64 µM.

Q: And the TGI [10]?
A: Its TGI is 25.3 µM.

Q: What about the GI50 [11] of the same compound?
A: The GI50 was 11.2 µM.

Q: And the TGI [11]?
A: Its TGI is 29.2 µM.

Q: What about the GI50 [12] of the same compound?
A: Its GI50 is 4.71 µM.

Q: What about the TGI [12] of the same compound?
A: Its TGI is 16.6 µM.

Q: What about the GI50 [13] of the same compound?
A: Its GI50 is 5.57 µM.

Q: And the TGI [13]?
A: Its TGI is 28.7 µM.

Q: What about the GI50 [14] of the same compound?
A: Its GI50 is 5.2 µM.

Q: What about the TGI [14] of the same compound?
A: Its TGI is greater than 100 µM.

Q: And the GI50 [15]?
A: Its GI50 is 11.3 µM.

Q: And the TGI [15]?
A: The TGI was 24.2 µM.

Q: What about the GI50 [16] of the same compound?
A: Its GI50 is 1.94 µM.

Q: What about the TGI [16] of the same compound?
A: The TGI was 8.54 µM.

Q: And the GI50 [17]?
A: The GI50 was 14 µM.

Q: What about the TGI [17] of the same compound?
A: Its TGI is greater than 100 µM.

Q: And the GI50 [18]?
A: Its GI50 is 2.22 µM.

Q: And the TGI [18]?
A: Its TGI is 11 µM.

Q: And the GI50 [19]?
A: The GI50 was 4.1 µM.

Q: What about the TGI [19] of the same compound?
A: Its TGI is 19.4 µM.

Q: What about the GI50 [20] of the same compound?
A: The GI50 was 5.17 µM.

Q: And the TGI [20]?
A: The TGI was 64.3 µM.

Q: What about the GI50 [21] of the same compound?
A: The GI50 was 4.05 µM.

Q: And the TGI [21]?
A: Its TGI is 19.3 µM.

Q: What about the GI50 [22] of the same compound?
A: Its GI50 is 6.1 µM.

Q: What about the TGI [22] of the same compound?
A: The TGI was 20.5 µM.

Q: And the GI50 [23]?
A: Its GI50 is 3.71 µM.

Q: What about the TGI [23] of the same compound?
A: Its TGI is 29.2 µM.

Q: What about the GI50 [24] of the same compound?
A: The GI50 was 2.9 µM.

Q: And the TGI [24]?
A: Its TGI is 16.2 µM.

Q: And the GI50 [25]?
A: The GI50 was 5.08 µM.

Q: What about the TGI [25] of the same compound?
A: Its TGI is 16.5 µM.

Q: And the GI50 [26]?
A: Its GI50 is 4.21 µM.

Q: And the TGI [26]?
A: The TGI was 22.1 µM.

Q: What about the GI50 [27] of the same compound?
A: The GI50 was 2.81 µM.

Q: What about the TGI [27] of the same compound?
A: Its TGI is 20.9 µM.

Q: And the GI50 [28]?
A: Its GI50 is 3.81 µM.

Q: What about the TGI [28] of the same compound?
A: The TGI was 16.8 µM.

Q: And the GI50 [29]?
A: Its GI50 is 8.69 µM.

Q: What about the TGI [29] of the same compound?
A: Its TGI is 21.9 µM.

Q: And the GI50 [30]?
A: The GI50 was 4.79 µM.

Q: What about the TGI [30] of the same compound?
A: Its TGI is 33.3 µM.

Q: What about the GI50 [31] of the same compound?
A: Its GI50 is 4.35 µM.

Q: What about the TGI [31] of the same compound?
A: The TGI was 17.7 µM.

Q: And the GI50 [32]?
A: Its GI50 is 2.74 µM.

Q: What about the TGI [32] of the same compound?
A: The TGI was 12.8 µM.

Q: What about the GI50 [33] of the same compound?
A: The GI50 was 5.13 µM.

Q: What about the TGI [33] of the same compound?
A: Its TGI is 23.1 µM.

Q: And the GI50 [34]?
A: The GI50 was 9.54 µM.

Q: And the TGI [34]?
A: Its TGI is 21.7 µM.

Q: What about the GI50 [35] of the same compound?
A: Its GI50 is 7.24 µM.

Q: What about the TGI [35] of the same compound?
A: The TGI was 23.3 µM.

Q: What about the GI50 [36] of the same compound?
A: The GI50 was 15.2 µM.

Q: What about the TGI [36] of the same compound?
A: The TGI was 48.7 µM.

Q: What about the GI50 [37] of the same compound?
A: The GI50 was 12.1 µM.

Q: And the TGI [37]?
A: Its TGI is 29.6 µM.

Q: What about the GI50 [38] of the same compound?
A: The GI50 was 2.95 µM.

Q: What about the TGI [38] of the same compound?
A: The TGI was 15.8 µM.

Q: And the GI50 [39]?
A: Its GI50 is 3.71 µM.

Q: And the TGI [39]?
A: The TGI was 17.9 µM.

Q: And the GI50 [40]?
A: The GI50 was 7.93 µM.

Q: What about the TGI [40] of the same compound?
A: Its TGI is 23 µM.

Q: And the GI50 [41]?
A: The GI50 was 10.5 µM.

Q: What about the TGI [41] of the same compound?
A: Its TGI is 24.8 µM.

Q: And the GI50 [42]?
A: The GI50 was 6.6 µM.

Q: And the TGI [42]?
A: The TGI was 21 µM.

Q: And the GI50 [43]?
A: The GI50 was 15.2 µM.

Q: And the TGI [43]?
A: The TGI was 31.9 µM.

Q: What about the GI50 [44] of the same compound?
A: Its GI50 is 4.63 µM.

Q: What about the TGI [44] of the same compound?
A: The TGI was 19.4 µM.

Q: And the GI50 [45]?
A: Its GI50 is 10.8 µM.

Q: What about the TGI [45] of the same compound?
A: The TGI was 31.6 µM.

Q: What about the GI50 [46] of the same compound?
A: Its GI50 is 3.05 µM.

Q: And the TGI [46]?
A: The TGI was greater than 100 µM.

Q: What about the GI50 [47] of the same compound?
A: Its GI50 is 8.93 µM.

Q: And the TGI [47]?
A: The TGI was greater than 100 µM.

Q: What about the GI50 [48] of the same compound?
A: The GI50 was 3.62 µM.

Q: And the TGI [48]?
A: The TGI was 16 µM.

Q: And the GI50 [49]?
A: Its GI50 is 12.7 µM.

Q: What about the TGI [49] of the same compound?
A: The TGI was 34.3 µM.

Q: What about the GI50 [50] of the same compound?
A: Its GI50 is 4.46 µM.

Q: And the TGI [50]?
A: Its TGI is 21.5 µM.

Q: And the GI50 [51]?
A: Its GI50 is 4.2 µM.

Q: What about the TGI [51] of the same compound?
A: The TGI was 18 µM.

Q: What about the GI50 [52] of the same compound?
A: Its GI50 is 5.49 µM.

Q: And the TGI [52]?
A: Its TGI is 20.2 µM.

Q: What about the GI50 [53] of the same compound?
A: The GI50 was 4.12 µM.

Q: What about the TGI [53] of the same compound?
A: The TGI was 32.9 µM.

Q: What about the GI50 [54] of the same compound?
A: The GI50 was 11.1 µM.

Q: What about the TGI [54] of the same compound?
A: Its TGI is 24.1 µM.

Q: And the GI50 [55]?
A: Its GI50 is 7.66 µM.

Q: And the TGI [55]?
A: Its TGI is 20.6 µM.

Q: And the GI50 [56]?
A: The GI50 was 4.2 µM.

Q: What about the TGI [56] of the same compound?
A: Its TGI is 27.3 µM.

Q: And the GI50 [57]?
A: Its GI50 is 5.43 µM.

Q: And the TGI [57]?
A: Its TGI is greater than 100 µM.

Q: And the GI50 [58]?
A: The GI50 was 2.17 µM.

Q: And the TGI [58]?
A: The TGI was 10.6 µM.
